Key:
Details in all cases: 48 h
SEM cells [1] = test: cell viability relative to DMSO control; higher = less cytotoxic
Procedure, shortened: (§1)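 Cells were incubated for 48 h at 37°C before CellTiter-Glo One luminescence was read. The cells were NOMO1 or SEM (500 cells/well) or P12-Ichikawa (1000 cells/well) leukemia cells, adapted for at least four passages in each medium and seeded in 1536-well plates (5 μl). Dosing used library compounds in DMSO applied by pin over 11 threefold points, 47 μM to 0.79 nM. Viability is the per-plate percentage of DMSO wells, with cell-free wells as background.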

NOMO1 [2] = test: AUC of viability dose-response curve (% viability x log10 dose units); higher = less sensitive
Procedure, shortened: (§2)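 Medium-adapted leukemia cells in 1536-well plates, at 500 or 1000 cells/well, were incubated for 48 h at 37°C with library compounds in DMSO at 11 threefold doses from 47 μM to 0.79 nM. CellTiter-Glo One luminescence normalised per plate to DMSO and cell-free wells was fitted with a four-parameter log-logistic model over log10 doses. Area under the curve was integrated from this fit by trapezoidal rule, with curves beyond full viability scaled and failed quality-control curves removed.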

P12-Ichikawa [3] = test: as above
Procedure, shortened: as §2

SEM cells [4] = test: as above
Procedure, shortened: as §2

NOMO1 [5] = test: cell viability relative to DMSO control; higher = less cytotoxic
Procedure, shortened: as §1

P12-Ichikawa [6] = test: as above
Procedure, shortened: as §1

Nc1nc(Cl)nc2c1ncn2[C@H]1C[C@H](O)[C@@H](CO)O1
SEM cells [1], HPLM + 10% dialyzed FBS
Details | cell viability [%]
0.000781 µM | 114
0.00234 µM | 119
0.00702 µM | 115
0.0211 µM | 133
0.0632 µM | 115
0.19 µM | 15.7
0.569 µM | 13.9
1.71 µM | 12.7
5.12 µM | 11.6
15.4 µM | 9.89
46.1 µM | 5.05

AUC of viability dose-response curve
Details | NOMO1 [2] | P12-Ichikawa [3] | SEM cells [4]
HPLM + 10% dialyzed FBS | 256 | 263 | 238
RPMI 5 mM glucose + 10% FBS | 270 | 254 | 226
RPMI 5 mM glucose + 10% dialyzed FBS | 257 | 272 | 212

Cc1cn([C@@H]2O[C@H](CO)[C@@H](O)[C@@H]2F)c(=O)[nH]c1=O
cell viability [%]
Details | NOMO1 [5] | P12-Ichikawa [6] | SEM cells [1]
HPLM + 10% dialyzed FBS, 0.000781 µM | – | 103 | 74.5
HPLM + 10% dialyzed FBS, 0.00234 µM | – | 112 | 103
HPLM + 10% dialyzed FBS, 0.00702 µM | – | 116 | 102
HPLM + 10% dialyzed FBS, 0.0211 µM | – | 122 | 101
HPLM + 10% dialyzed FBS, 0.0632 µM | – | 116 | 110
HPLM + 10% dialyzed FBS, 0.19 µM | – | 122 | 104
HPLM + 10% dialyzed FBS, 0.569 µM | – | 132 | 110
HPLM + 10% dialyzed FBS, 1.71 µM | – | 124 | 116
HPLM + 10% dialyzed FBS, 5.12 µM | – | 126 | 116
HPLM + 10% dialyzed FBS, 15.4 µM | – | 122 | 104
HPLM + 10% dialyzed FBS, 46.1 µM | – | 123 | 95
RPMI 5 mM glucose + 10% FBS, 0.000781 µM | 93.5 | 101 | 101
RPMI 5 mM glucose + 10% FBS, 0.00234 µM | 108 | 115 | 102
RPMI 5 mM glucose + 10% FBS, 0.00702 µM | 102 | 116 | 103
RPMI 5 mM glucose + 10% FBS, 0.0211 µM | 117 | 120 | 93.4
RPMI 5 mM glucose + 10% FBS, 0.0632 µM | 114 | 124 | 122
RPMI 5 mM glucose + 10% FBS, 0.19 µM | 121 | 127 | 107
RPMI 5 mM glucose + 10% FBS, 0.569 µM | 110 | 119 | 108
RPMI 5 mM glucose + 10% FBS, 1.71 µM | 115 | 129 | 113
RPMI 5 mM glucose + 10% FBS, 5.12 µM | 109 | 130 | 117
RPMI 5 mM glucose + 10% FBS, 15.4 µM | 113 | 123 | 122
RPMI 5 mM glucose + 10% FBS, 46.1 µM | 29 | 17.6 | 119
RPMI 5 mM glucose + 10% dialyzed FBS, 0.000781 µM | 86.1 | 97 | 77
RPMI 5 mM glucose + 10% dialyzed FBS, 0.00234 µM | 120 | 110 | 111
RPMI 5 mM glucose + 10% dialyzed FBS, 0.00702 µM | 114 | 111 | 92.3
RPMI 5 mM glucose + 10% dialyzed FBS, 0.0211 µM | 108 | 113 | 109
RPMI 5 mM glucose + 10% dialyzed FBS, 0.0632 µM | 123 | 121 | 127
RPMI 5 mM glucose + 10% dialyzed FBS, 0.19 µM | 119 | 126 | 122
RPMI 5 mM glucose + 10% dialyzed FBS, 0.569 µM | 127 | 121 | 108
RPMI 5 mM glucose + 10% dialyzed FBS, 1.71 µM | 120 | 123 | 105
RPMI 5 mM glucose + 10% dialyzed FBS, 5.12 µM | 103 | 123 | 124
RPMI 5 mM glucose + 10% dialyzed FBS, 15.4 µM | 126 | 127 | 93.5
RPMI 5 mM glucose + 10% dialyzed FBS, 46.1 µM | 22.4 | 64.6 | 92.7

AUC of viability dose-response curve
Details | HPLM + 10% dialyzed FBS | RPMI 5 mM glucose + 10% FBS | RPMI 5 mM glucose + 10% dialyzed FBS
NOMO1 [2] | 456 | 460 | 458
SEM cells [4] | 467 | 437 | 469

CC(C)C[C@H](NC(=O)[C@H](CCc1ccccc1)NC(=O)CN1CCOCC1)C(=O)N[C@@H](Cc1ccccc1)C(=O)N[C@@H](CC(C)C)C(=O)[C@@]1(C)CO1
cell viability [%]
Details | NOMO1 [5] | P12-Ichikawa [6] | SEM cells [1]
HPLM + 10% dialyzed FBS, 0.000781 µM | 94.7 | 86.2 | 84.6
HPLM + 10% dialyzed FBS, 0.00234 µM | 95.3 | 96.7 | 86.5
HPLM + 10% dialyzed FBS, 0.00702 µM | 103 | 95.1 | 100
HPLM + 10% dialyzed FBS, 0.0211 µM | 99.4 | 86.1 | 8.14
HPLM + 10% dialyzed FBS, 0.0632 µM | 7.57 | 5.6 | 7.13
HPLM + 10% dialyzed FBS, 0.19 µM | 8.63 | 5.9 | 7.08
HPLM + 10% dialyzed FBS, 0.569 µM | 5.74 | 5.35 | 6.63
HPLM + 10% dialyzed FBS, 1.71 µM | 4.23 | 4.68 | 5.14
HPLM + 10% dialyzed FBS, 5.12 µM | 1.47 | 1.59 | 4.16
HPLM + 10% dialyzed FBS, 15.4 µM | 0.357 | -0.411 | 1.67
HPLM + 10% dialyzed FBS, 46.1 µM | 0.4 | -0.285 | 1.47
RPMI 5 mM glucose + 10% FBS, 0.000781 µM | 77.8 | 83.1 | 97.5
RPMI 5 mM glucose + 10% FBS, 0.00234 µM | 88.9 | 96.3 | 102
RPMI 5 mM glucose + 10% FBS, 0.00702 µM | 90 | 92.7 | 65.7
RPMI 5 mM glucose + 10% FBS, 0.0211 µM | 83.9 | 46.1 | 8.2
RPMI 5 mM glucose + 10% FBS, 0.0632 µM | 6.13 | 4.86 | 7.68
RPMI 5 mM glucose + 10% FBS, 0.19 µM | 6.37 | 4.74 | 6.95
RPMI 5 mM glucose + 10% FBS, 0.569 µM | 4.68 | 4.53 | 7.46
RPMI 5 mM glucose + 10% FBS, 1.71 µM | 3.7 | 4.03 | 4.9
RPMI 5 mM glucose + 10% FBS, 5.12 µM | 2.13 | 2.11 | 2.81
RPMI 5 mM glucose + 10% FBS, 15.4 µM | -0.195 | -0.0452 | 1.52
RPMI 5 mM glucose + 10% FBS, 46.1 µM | -0.384 | -0.307 | 1.37
RPMI 5 mM glucose + 10% dialyzed FBS, 0.000781 µM | 90.9 | 78.8 | 72.1
RPMI 5 mM glucose + 10% dialyzed FBS, 0.00234 µM | 93.3 | 94.4 | 81.7
RPMI 5 mM glucose + 10% dialyzed FBS, 0.00702 µM | 98.5 | 91.2 | 80.6
RPMI 5 mM glucose + 10% dialyzed FBS, 0.0211 µM | 92 | 54.1 | 8.46
RPMI 5 mM glucose + 10% dialyzed FBS, 0.0632 µM | 8.53 | 5.27 | 7.46
RPMI 5 mM glucose + 10% dialyzed FBS, 0.19 µM | 8.08 | 4.96 | 7.29
RPMI 5 mM glucose + 10% dialyzed FBS, 0.569 µM | 5.45 | 4.93 | 6.73
RPMI 5 mM glucose + 10% dialyzed FBS, 1.71 µM | 3.98 | 3.8 | 4.71
RPMI 5 mM glucose + 10% dialyzed FBS, 5.12 µM | 2.7 | 1.93 | 3.02
RPMI 5 mM glucose + 10% dialyzed FBS, 15.4 µM | 0.526 | -0.204 | 1.73
RPMI 5 mM glucose + 10% dialyzed FBS, 46.1 µM | -0.204 | -0.46 | 1.54

AUC of viability dose-response curve
Details | HPLM + 10% dialyzed FBS | RPMI 5 mM glucose + 10% FBS | RPMI 5 mM glucose + 10% dialyzed FBS
NOMO1 [2] | 177 | 152 | 169
P12-Ichikawa [3] | 162 | 139 | 140

From the supplement of paper PMC11451515
